Laboratory results taken from paper PMC9516332 (Frontiers in Oncology, 2022).
Where two headings read alike, the source gives them in different places.

What was measured:
[1] = tested on: 134 cancer cell lines; experiment: Cell viability assay (ATPlite, 72 hours), IC50 on cancer cell line panel
[2] = tested on: AP-1060 (ETV6-NTRK3); experiment: Cell viability assay; details: read-out: IC50 in cell proliferation assay

## CCN1C(=O)N(c2c(F)c(OC)cc(OC)c2F)Cc2cnc3[nH]c(CN4CCOCC4)cc3c21 [pemigatinib]
[1]; Homo sapiens, LoVo, read-out: IC50 in cell proliferation assay
  IC50: 2.7 µM
[1]; Homo sapiens, MCF7, read-out: IC50 in cell proliferation assay
  IC50: > 31.6 µM
[1]; Homo sapiens, MDA-MB-231, read-out: IC50 in cell proliferation assay
  IC50: 4.51 µM
[1]; Homo sapiens, MDA-MB-453, read-out: IC50 in cell proliferation assay
  IC50: > 31.6 µM
[1]; Homo sapiens, MDA-MB-468, read-out: IC50 in cell proliferation assay
  IC50: 0.729 µM
[1]; Homo sapiens, MG-63, read-out: IC50 in cell proliferation assay
  IC50: 0.011 µM
[1]; Homo sapiens, MIA PaCa-2, read-out: IC50 in cell proliferation assay
  IC50: 5.73 µM
[1]; Homo sapiens, MKN-45, read-out: IC50 in cell proliferation assay
  IC50: 2.32 µM
[1]; Homo sapiens, MOLM-13, read-out: IC50 in cell proliferation assay
  IC50: 3.54 µM
[1]; Homo sapiens, MOLT-4, read-out: IC50 in cell proliferation assay
  IC50: 3.59 µM
[1]; Homo sapiens, MV4-11, read-out: IC50 in cell proliferation assay
  IC50: 2.49 µM
[1]; Homo sapiens, MeWo, read-out: IC50 in cell proliferation assay
  IC50: 2.81 µM
[1]; Homo sapiens, NCCIT, read-out: IC50 in cell proliferation assay
  IC50: 0.022 µM
[1]; Homo sapiens, NCI-H82, read-out: IC50 in cell proliferation assay
  IC50: 1.4 µM
[1]; Homo sapiens, NCI-H460, read-out: IC50 in cell proliferation assay
  IC50: 2.75 µM
[1]; Homo sapiens, NCI-H661, read-out: IC50 in cell proliferation assay
  IC50: 2.44 µM
[1]; Homo sapiens, NCI-H716, read-out: IC50 in cell proliferation assay
  IC50: 0.00234 µM
[1]; Homo sapiens, NCI-H1650, read-out: IC50 in cell proliferation assay
  IC50: 3.3 µM
[1]; Homo sapiens, NCI-H1975, read-out: IC50 in cell proliferation assay
  IC50: 2.97 µM
[1]; Homo sapiens, NCI-H2228, read-out: IC50 in cell proliferation assay
  IC50: 2.77 µM
[1]; Homo sapiens, OVCAR-3, read-out: IC50 in cell proliferation assay
  IC50: 3.13 µM
[1]; Homo sapiens, PFSK-1, read-out: IC50 in cell proliferation assay
  IC50: 3.86 µM
[1]; Homo sapiens, RL95-2, read-out: IC50 in cell proliferation assay
  IC50: 2.38 µM
[1]; Homo sapiens, RPMI-7951, read-out: IC50 in cell proliferation assay
  IC50: 2.98 µM
[1]; Homo sapiens, RS4-11, read-out: IC50 in cell proliferation assay
  IC50: 1.33 µM
[1]; Homo sapiens, Rec1, read-out: IC50 in cell proliferation assay
  IC50: 3.53 µM
[1]; Homo sapiens, SHP77, read-out: IC50 in cell proliferation assay
  IC50: > 31.6 µM
[1]; Homo sapiens, SK-BR-3, read-out: IC50 in cell proliferation assay
  IC50: 0.835 µM
[1]; Homo sapiens, SK-N-AS, read-out: IC50 in cell proliferation assay
  IC50: 2.83 µM
[1]; Homo sapiens, SK-N-FI, read-out: IC50 in cell proliferation assay
  IC50: 3.04 µM
[1]; Homo sapiens, SK-N-MC, read-out: IC50 in cell proliferation assay
  IC50: 2.6 µM
[1]; Homo sapiens, SK-N-SH, read-out: IC50 in cell proliferation assay
  IC50: 2.23 µM
[1]; Homo sapiens, SNU-5, read-out: IC50 in cell proliferation assay
  IC50: 5.25 µM
[1]; Homo sapiens, SNU-16, read-out: IC50 in cell proliferation assay
  IC50: 0.002 µM
[1]; Homo sapiens, SNU-C2B, read-out: IC50 in cell proliferation assay
  IC50: > 31.6 µM
[1]; Homo sapiens, SU-DHL-1, read-out: IC50 in cell proliferation assay
  IC50: 2.8 µM
[1]; Homo sapiens, SU-DHL-6, read-out: IC50 in cell proliferation assay
  IC50: 5.12 µM
[1]; Homo sapiens, SUP-T1, read-out: IC50 in cell proliferation assay
  IC50: 4.28 µM
[1]; Homo sapiens, SW48, read-out: IC50 in cell proliferation assay
  IC50: 8.07 µM
[1]; Homo sapiens, SW480, read-out: IC50 in cell proliferation assay
  IC50: 2.96 µM
[1]; Homo sapiens, SW626, read-out: IC50 in cell proliferation assay
  IC50: 3.56 µM
[1]; Homo sapiens, SW780, read-out: IC50 in cell proliferation assay
  IC50: 0.008 µM
[1]; Homo sapiens, SW837, read-out: IC50 in cell proliferation assay
  IC50: 6.23 µM
[1]; Homo sapiens, SW872, read-out: IC50 in cell proliferation assay
  IC50: 2.5 µM
[1]; Homo sapiens, SW900, read-out: IC50 in cell proliferation assay
  IC50: 1.92 µM
[1]; Homo sapiens, SW948, read-out: IC50 in cell proliferation assay
  IC50: 1.93 µM
[1]; Homo sapiens, SW982, read-out: IC50 in cell proliferation assay
  IC50: 1.28 µM
[1]; Homo sapiens, SW-620, read-out: IC50 in cell proliferation assay
  IC50: 3.49 µM
[1]; Homo sapiens, T98G, read-out: IC50 in cell proliferation assay
  IC50: 3.54 µM
[1]; Homo sapiens, TCC-SUP, read-out: IC50 in cell proliferation assay
  IC50: 0.606 µM
[1]; Homo sapiens, THP-1, read-out: IC50 in cell proliferation assay
  IC50: 4.23 µM
[1]; Homo sapiens, U2OS, read-out: IC50 in cell proliferation assay
  IC50: 2.95 µM
[1]; Homo sapiens, U-87 MG, read-out: IC50 in cell proliferation assay
  IC50: 3.12 µM
[1]; Homo sapiens, U-118-MG, read-out: IC50 in cell proliferation assay
  IC50: 4.09 µM
[1]; Homo sapiens, UMUC3, read-out: IC50 in cell proliferation assay
  IC50: 1.6 µM
[1]; Hs766T, read-out: IC50 in cell proliferation assay
  IC50: 5.66 µM
[1]; L-82, read-out: IC50 in cell proliferation assay
  IC50: 4.1 µM
[1]; Rh30, read-out: IC50 in cell proliferation assay
  IC50: 0.137 µM
[2]
  IC50: 3.42 µM
